Reference: patent publication US4416884A, “Piperazinylbenzoheterocyclic compounds” (Otsuka Pharmaceutical Co., Ltd., priority 1978, dated 1983)
≈ marks a conversion by molar mass, not a printed value. Like-named read-outs stand apart in the source and are kept apart here.

Legend:
Type in all cases: cell-based
[1] = test system: Bacillus subtilis PCI 219; assay: antimicrobial activity, serial dilution method on agar plate
Summary of the method: (§1)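 Test compounds were diluted serially into Heart Infusion agar plates. Each organism was adjusted to 1×10^8 cells/ml by optical density at 660 mμ, then also diluted to 1×10^6 cells/ml. Minimum inhibitory concentrations were recorded in mcg/ml.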

[2] = test system: Enterobacter aerogenes IFO 12979; assay: as above; settings: Klebsiella aerogenes
Summary of the method: as §1

Enterobacter cloacae = assay: as above
Summary of the method: as §1

Escherichia Coli NIHJ = assay: as above; settings: read-out: Minimum Inhibitory Concentration
Summary of the method: as §1

Hafnia alvei IFO 3731 = assay: as above; settings: read-out: Minimum Inhibitory Concentration
Summary of the method: as §1

Proteus rettgeri NIH 96 = assay: as above; settings: Providencia rettgeri
Summary of the method: as §1

[3] = test system: Proteus vulgaris IID OX-19; assay: as above; settings: read-out: Minimum Inhibitory Concentration
Summary of the method: as §1

[4] = test system: Pseudomonas aeruginosa ATCC 10145; assay: as above
Summary of the method: as §1

[5] = test system: Pseudomonas aeruginosa NCTC 10490; assay: as above
Summary of the method: as §1

[6] = test system: Pseudomonas putida IFO 13696; assay: as above; settings: read-out: Minimum Inhibitory Concentration
Summary of the method: as §1

[7] = test system: Serattia marcescens IFO 12648; assay: as above
Summary of the method: as §1

Shigella Sonnei EW 33 = assay: as above; settings: read-out: Minimum Inhibitory Concentration
Summary of the method: as §1

[8] = test system: Staphylococcus aureus FDA 209 P; assay: as above
Summary of the method: as §1

[9] = test system: Streptococcus pneumoniae Type III; assay: as above
Summary of the method: as §1

[10] = test system: Streptococcus pneumoniae Type I; assay: as above
Summary of the method: as §1

[11] = test system: Yersinia enterocolitica 0-3; assay: as above
Summary of the method: as §1

[12] = test system: Yersinia enterocolitica 0-5; assay: as above
[13] = test system: Aeromonas hydrophila IFO 12658; assay: antimicrobial activity on bacteria which cause infectious diseases in fish
Experimental: (§2) The antimicrobial activity of the following test compounds on various test organisms listed below was determined by the serial dilution method on agar plate (Heart Infusion agar produced by Difco Co.) (see CHEMOTHERAPY 22, pp. 1126-1128 (1974)), and the minimum inhibitory concentrations (mcg/ml) obtained are shown in Table 1 below.
(§3) A sample of each test organism was prepared so that the population of the organism was 1×10^8 cells/ml (O.D. 660 mμ=0.07 to 0.16) and 1×10^6 cells/ml (which was obtained by diluting the above 1×10^8 cells/ml preparation).
(§4) In the same manner as above, the antimicrobial activity of the following compounds on various test organisms which cause infectious diseases in fish was determined.

[14] = test system: Aeromonas hydrophila IFO 12981; assay: as above
Experimental: as §2, §3, §4

[15] = test system: Aeromonas salmonicida IFO 12659; assay: as above
Experimental: as §2, §3, §4

[16] = test system: Aeromonas salmonicida IFO 12718; assay: as above
Experimental: as §2, §3, §4

[17] = test system: Pseudomonas fluorescens IFO 12180; assay: as above
Experimental: as §2, §3, §4

[18] = test system: Pseudomonas fluorescens IFO 12568; assay: as above
Experimental: as §2, §3, §4

[19] = test system: Vibrio anguillarum IFO 12710; assay: as above
Experimental: as §2, §3, §4

[20] = test system: Vibrio anguillarum IFO 13266; assay: as above
Experimental: as §2, §3, §4

[21] = read-out: Minimum Inhibitory Concentration, inoculum 1 × 10^6 cells/ml
[22] = read-out: Minimum Inhibitory Concentration, inoculum 1 × 10^8 cells/ml

CCn1cc(C(=O)O)c(=O)c2ccc(C)nc21 [E]
MIC ([1]; PCI219, read-out: Minimum Inhibitory Concentration, inoculum 1 × 10^6 cells/ml): 3.1 µg/mL (≈ 13.3 µM) | MIC ([1]; PCI219, read-out: Minimum Inhibitory Concentration, inoculum 1 × 10^8 cells/ml): 6.3 µg/mL (≈ 27.1 µM) | MIC ([2]; IFO12979, read-out: Minimum Inhibitory Concentration, inoculum 1 × 10^6 cells/ml): 3.1 µg/mL (≈ 13.3 µM) | MIC ([2]; IFO12979, read-out: Minimum Inhibitory Concentration, inoculum 1 × 10^8 cells/ml): 6.3 µg/mL (≈ 27.1 µM) | MIC (Enterobacter cloacae; [21]): 3.1 µg/mL (≈ 13.3 µM) | MIC (Enterobacter cloacae; [22]): 3.1 µg/mL (≈ 13.3 µM) | MIC (Escherichia Coli NIHJ; inoculum 1 × 10^6 cells/ml): 1.6 µg/mL (≈ 6.89 µM) | MIC (Escherichia Coli NIHJ; inoculum 1 × 10^8 cells/ml): 3.1 µg/mL (≈ 13.3 µM) | MIC (Hafnia alvei IFO 3731; IFO3731, inoculum 1 × 10^6 cells/ml): 50 µg/mL (≈ 215 µM) | MIC (Hafnia alvei IFO 3731; IFO3731, inoculum 1 × 10^8 cells/ml): 100 µg/mL (≈ 431 µM) | MIC (Proteus rettgeri NIH 96; NIH96, read-out: Minimum Inhibitory Concentration, inoculum 1 × 10^6 cells/ml): 0.8 µg/mL (≈ 3.44 µM) | MIC (Proteus rettgeri NIH 96; NIH96, read-out: Minimum Inhibitory Concentration, inoculum 1 × 10^8 cells/ml): 1.6 µg/mL (≈ 6.89 µM) | MIC ([3]; IIDOX19, inoculum 1 × 10^6 cells/ml): 3.1 µg/mL (≈ 13.3 µM) | MIC ([3]; IIDOX19, inoculum 1 × 10^8 cells/ml): 3.1 µg/mL (≈ 13.3 µM) | MIC ([4]; ATCC10145, read-out: Minimum Inhibitory Concentration, inoculum 1 × 10^6 cells/ml): > 100 µg/mL | MIC ([4]; ATCC10145, read-out: Minimum Inhibitory Concentration, inoculum 1 × 10^8 cells/ml): > 100 µg/mL | MIC ([5]; NCTC10490, read-out: Minimum Inhibitory Concentration, inoculum 1 × 10^6 cells/ml): > 100 µg/mL | MIC ([5]; NCTC10490, read-out: Minimum Inhibitory Concentration, inoculum 1 × 10^8 cells/ml): > 100 µg/mL | MIC ([6]; IFO13696, inoculum 1 × 10^6 cells/ml): 50 µg/mL (≈ 215 µM) | MIC ([6]; IFO13696, inoculum 1 × 10^8 cells/ml): 100 µg/mL (≈ 431 µM) | MIC [7, 21]: 3.1 µg/mL (≈ 13.3 µM) | MIC [7, 22]: 3.1 µg/mL (≈ 13.3 µM) | MIC (Shigella Sonnei EW 33; inoculum 1 × 10^6 cells/ml): 3.1 µg/mL (≈ 13.3 µM) | MIC (Shigella Sonnei EW 33; inoculum 1 × 10^8 cells/ml): 3.1 µg/mL (≈ 13.3 µM) | MIC ([8]; FDA209, read-out: Minimum Inhibitory Concentration, inoculum 1 × 10^6 cells/ml): 50 µg/mL (≈ 215 µM) | MIC ([8]; FDA209, read-out: Minimum Inhibitory Concentration, inoculum 1 × 10^8 cells/ml): 50 µg/mL (≈ 215 µM) | MIC [9, 21]: > 100 µg/mL | MIC [9, 22]: > 100 µg/mL | MIC [10, 21]: > 100 µg/mL | MIC [10, 22]: > 100 µg/mL | MIC ([11]; Yersinia enterocolitica, 03, read-out: Minimum Inhibitory Concentration, inoculum 1 × 10^6 cells/ml): 1.6 µg/mL (≈ 6.89 µM) | MIC ([11]; Yersinia enterocolitica, 03, read-out: Minimum Inhibitory Concentration, inoculum 1 × 10^8 cells/ml): 12.5 µg/mL (≈ 53.8 µM) | MIC ([12]; Yersinia enterocolitica, 05, read-out: Minimum Inhibitory Concentration, inoculum 1 × 10^6 cells/ml): 1.6 µg/mL (≈ 6.89 µM) | MIC ([12]; Yersinia enterocolitica, 05, read-out: Minimum Inhibitory Concentration, inoculum 1 × 10^8 cells/ml): 3.1 µg/mL (≈ 13.3 µM) | MIC ([13]; IFO12658, inoculum 10^6, read-out: Minimum Inhibitory Concentration): 0.8 µg/mL (≈ 3.44 µM) | MIC ([13]; IFO12658, inoculum 10^8, read-out: Minimum Inhibitory Concentration): 0.8 µg/mL (≈ 3.44 µM) | MIC ([14]; IFO12981, inoculum 10^6, read-out: Minimum Inhibitory Concentration): 0.2 µg/mL (≈ 0.861 µM) | MIC ([14]; IFO12981, inoculum 10^8, read-out: Minimum Inhibitory Concentration): 0.4 µg/mL (≈ 1.72 µM) | MIC ([15]; IFO12659, inoculum 10^6, read-out: Minimum Inhibitory Concentration): 0.8 µg/mL (≈ 3.44 µM) | MIC ([15]; IFO12659, inoculum 10^8, read-out: Minimum Inhibitory Concentration): 0.8 µg/mL (≈ 3.44 µM) | MIC ([16]; IFO12718, inoculum 10^6, read-out: Minimum Inhibitory Concentration): 0.8 µg/mL (≈ 3.44 µM) | MIC ([16]; IFO12718, inoculum 10^8, read-out: Minimum Inhibitory Concentration): 0.8 µg/mL (≈ 3.44 µM) | MIC ([17]; IFO12180, inoculum 10^6, read-out: Minimum Inhibitory Concentration): 50 µg/mL (≈ 215 µM) | MIC ([17]; IFO12180, inoculum 10^8, read-out: Minimum Inhibitory Concentration): > 50 µg/mL | MIC ([18]; IFO12568, inoculum 10^6, read-out: Minimum Inhibitory Concentration): 50 µg/mL (≈ 215 µM) | MIC ([18]; IFO12568, inoculum 10^8, read-out: Minimum Inhibitory Concentration): > 50 µg/mL | MIC ([19]; IFO12710, inoculum 10^6, read-out: Minimum Inhibitory Concentration): 0.8 µg/mL (≈ 3.44 µM) | MIC ([19]; IFO12710, inoculum 10^8, read-out: Minimum Inhibitory Concentration): 1.6 µg/mL (≈ 6.89 µM) | MIC ([20]; IFO13266, inoculum 10^6, read-out: Minimum Inhibitory Concentration): 0.8 µg/mL (≈ 3.44 µM) | MIC ([20]; IFO13266, inoculum 10^8, read-out: Minimum Inhibitory Concentration): 1.6 µg/mL (≈ 6.89 µM)
